Source: US7981879B2, “HIV integrase inhibitors” (Instituto di Ricerchi di Biologia Molecolare P. Angeletti …, priority 2005, dated 2011)
Where two headings read alike, the source gives them in different places.

Test system: HIV
Test: Assay for inhibition of HIV replication (spread assay): acute HIV infection of T-lymphoid cells
Type: cell-based
Details: read-out: CIC95, inhibition of HIV replication
Method: Assays for the inhibition of acute HIV infection of T-lymphoid cells (alternatively referred to herein as the “spread assay”) were conducted in accordance with Vacca, J. P. et al., Proc. Natl. Acad. Sci. USA 1994, 91: 4096. […] The other compounds in Table 1 were tested in the spread assay up to 1 micromolar, but specific IC95 values were not obtained; i.e., the IC95 values were greater than 1 micromolar. It is believed, however, that the IC95 values of these compounds would be less than about 50 micromolar.

[1] = Human immunodeficiency virus 1, spread assay, T-lymphoid cells

| Compound | IC95 (Human immunodeficiency virus 1, T-lymphoid) [nM] | IC95 [1] [nM] |
| --- | --- | --- |
| CN1Cn2c(nc(C(=O)NCc3ccc(F)cc3)c(O)c2=O)C12CCCCC2 [Compound 1, N-(4-fluorobenzyl)-3′-hydroxy-7′-methyl-4′-oxo-6′,7′-dihydro-4′H-spiro[cyclohexane-1,8′-imidazo[1,5-a]pyrimidine]-2′-carboxamide] | < 1000 |  |
| CN1Cn2c(nc(C(=O)NCc3ccc(F)cc3S(C)(=O)=O)c(O)c2=O)C1(C)C [Compound 2, N-[4-fluoro-2-(methylsulfonyl)benzyl]-3-hydroxy-7,8,8-trimethyl-4-oxo-4,6,7,8-tetrahydroimidazo[1,5-a]pyrimidine-2-carboxamide] |  | < 1000 |
| CN1Cn2c(nc(C(=O)NCc3ccc(F)cc3)c(O)c2=O)C1(C)C [Compound 5, N-(4-fluorobenzyl)-3-hydroxy-7,8,8-trimethyl-4-oxo-4,6,7,8-tetrahydroimidazo[1,5-a]pyrimidine-2-carboxamide] |  | < 1000 |
| CC1(C)c2nc(C(=O)NCc3ccc(F)cc3)c(O)c(=O)n2CN1Cc1cccnc1 [Compound 6, N-(4-fluorobenzyl)-3-hydroxy-8,8-dimethyl-4-oxo-7-(pyridin-3-ylmethyl)-4,6,7,8-tetrahydroimidazo[1,5-a]pyrimidine-2-carboxamide] |  | < 1000 |
| O=C(NCc1ccc(F)cc1)c1nc2n(c(=O)c1O)CCNC2COCc1ccccc1 (centres unmarked) [Compound 9, 9-[(benzyloxy)methyl]-N-(4-fluorobenzyl)-3-hydroxy-4-oxo-6,7,8,9-tetrahydro-4H-pyrazino[1,2-a]pyrimidine-2-carboxamide] |  | < 1000 |
| CN1CCn2c(nc(C(=O)NCc3ccc(F)cc3)c(O)c2=O)C1COCc1ccccc1 (centres unmarked) [Compound 11, 9-[(benzyloxy)methyl]-N-(4-fluorobenzyl)-3-hydroxy-8-methyl-4-oxo-6,7,8,9-tetrahydro-4H-pyrazino[l,2-a]pyrimidine-2-carboxamide] |  | 1000 to 10000 |
| CC(=O)N1CCn2c(nc(C(=O)NCc3ccc(F)cc3)c(O)c2=O)C1COCc1ccccc1 (centres unmarked) [Compound 12, 8-acetyl-9-[(benzyloxy)methyl]-N-(4-fluorobenzyl)-3-hydroxy-4-oxo-6,7,8,9-tetrahydro-4H-pyrazino[1,2-a]pyrimidine-2-carboxamide] |  | 1000 to 10000 |
| CSCC1NCCn2c1nc(C(=O)NCc1ccc(F)cc1)c(O)c2=O (centres unmarked) [Compound 27, N-(4-fluorobenzyl)-3-hydroxy-9-[(methylthio)methyl]-4-oxo-6,7,8,9-tetrahydro-4H-pyrazino[1,2-a]pyramidine-2-carboxamide] |  | < 1000 |
| CN1CCn2c(nc(C(=O)NCc3ccc(F)cc3)c(O)c2=O)C1CS(C)(=O)=O (centres unmarked) [Compound 28, N-(4-fluorobenzyl)-3-hydroxy-8-methyl-9-[(methylsulfonyl)methyl]-4-oxo-6,7,8,9-tetrahydro-4H-pyrazino[1,2-a]pyrimidine-2-carboxamide] |  | 1000 to 10000 |
| O=C(NCc1ccc(F)cc1)c1nc2n(c(=O)c1O)CCNC21CCOCC1 [Compound 29, N-(4-fluorobenzyl)-3′-hydroxy-4′-oxo-2,3,5,6,7′,8′-hexahydro-4′H,6′H-spiro[pyran-4,9′-pyrazino[1,2-a]pyrimidine]-2′-carboxamide] |  | < 1000 |
| CN1CCn2c(nc(C(=O)NCc3ccc(F)cc3)c(O)c2=O)C12CCOCC2 [Compound 30, N-(4-fluorobenzyl)-3′-hydroxy-8′-methyl-4′-oxo-2,3,5,6,7′,8′-hexahydro-4′H,6′H-spiro[pyran-4,9′-pyrazino[1,2-a]pyrimidine]-2′-carboxamide] |  | < 1000 |
| CC1c2nc(C(=O)NCc3ccc(F)cc3)c(O)c(=O)n2CCN1C (centres unmarked) [Compound 32, N-(4-fluorobenzyl)-3-hydroxy-8,9-dimethyl-4-oxo-6,7,8,9-tetrahydro-4H-pyrazino[1,2-a]pyrimidine-2-carboxamide] |  | < 1000 |
| CN(C)C(=O)CN1CCn2c(nc(C(=O)NCc3ccc(F)cc3)c(O)c2=O)C1(C)C [Compound 64, 8-[2-(dimethylamino)-2-oxoethyl]-N-(4-fluorobenzyl)-3-hydroxy-9,9-dimethyl-4-oxo-6,7,8,9-tetrahydro-4H-pyrazino[1,2-a]pyrimidine-2-carboxamide] |  | 1000 to 10000 |
| CC1(C)NS(=O)(=O)Cn2c1nc(C(=O)NCc1ccc(F)cc1)c(O)c2=O [Compound 105, N-(4-fluorobenzyl)-3-hydroxy-9,9-dimethyl-4-oxo-8,9-dihydro-4H-pyrimido[2,1-d][1,2,5]thiadiazine-2-carboxamide 7,7-dioxide] |  | 1000 to 10000 |
| CN1CCn2c(nc(C(=O)NCc3ccc(F)cc3)c(O)c2=O)C(N(C)Cc2ccccc2)C1 (centres unmarked) [Compound 159, 10-[benzyl(methyl)amino]-N-(4-fluorobenzyl)-3-hydroxy-8-methyl-4-oxo-4,6,7,8,9,10-hexahydropyrimido[1,2-d][1,4]diazepine-2-carboxamide] |  | 1000 to 10000 |
| CN1CCn2c(nc(C(=O)NCc3ccc(F)cc3)c(O)c2=O)C(NC(=O)C(=O)N(C)C)C1 (centres unmarked) [Compound 160, N′-(2-{[(4-fluorobenzyl)amino]carbonyl}-3-hydroxy-8-methyl-4-oxo-4,6,7,8,9,10-hexahydropyrimido[1,2-d][1,4]diazepin-10-yl)-N,N-dimethylethanediamide] |  | < 1000 |
| CC(=O)N(CC(C)C)C1CN(C)CCn2c1nc(C(=O)NCc1ccc(F)cc1)c(O)c2=O (centres unmarked) [Compound 161, 10-[acetyl(isobutyl)amino]-N-(4-fluorobenzyl)-3-hydroxy-8-methyl-4-oxo-4,6,7,8,9,10-hexahydropyrimido[1,2-d][1,4]diazepine-2-carboxamide] |  | < 1000 |
| CN1CCn2c(nc(C(=O)NCc3ccc(F)cc3)c(O)c2=O)C(N(C)S(C)(=O)=O)C1 (centres unmarked) [Compound 163, N-(4-fluorobenzyl)-3-hydroxy-8-methyl-10-[methyl(methylsulfonyl)amino]-4-oxo-4,6,7,8,9,10-hexahydropyrimido[1,2-d][1,4]diazepine-2-carboxamide] |  | < 1000 |
| COC(=O)N(C)C1CN(C)CCn2c1nc(C(=O)NCc1ccc(F)cc1)c(O)c2=O (centres unmarked) [Compound 166, methyl (2-{[(4-fluorobenzyl)amino]carbonyl}-3-hydroxy-8-methyl-4-oxo-4,6,7,8,9,10-hexahydropyrimido[1,2-d][1,4]diazepin-10-yl)methylcarbamate] |  | < 1000 |
| CC(C)CNC1CN(C)CCn2c1nc(C(=O)NCc1ccc(F)cc1)c(O)c2=O (centres unmarked) [Compound 169, N-(4-fluorobenzyl)-3-hydroxy-10-(isobutylamino)-8-methyl-4-oxo-4,6,7,8,9,10-hexahydropyrimido[1,2-d][1,4]diazepine-2-carboxamide] |  | 1000 to 10000 |
| CC(=O)N(C)C1CN(C)CCn2c1nc(C(=O)NCc1ccc(F)cc1)c(O)c2=O (centres unmarked) [Compound 170, 10-[acetyl(methyl)amino]-N-(4-fluorobenzyl)-3-hydroxy-8-methyl-4-oxo-4,6,7,8,9,10-hexahydropyrimido[1,2-d][1,4]diazepine-2-carboxamide] |  | < 1000 |
| CC1(C)NCCCn2c1nc(C(=O)NCc1ccc(F)cc1)c(O)c2=O [Compound 175, N-(4-fluorobenzyl)-3-hydroxy-10,10-dimethyl-4-oxo-4,6,7,8,9,10-hexahydropyrimido[1,2-a][1,4]diazepine-2-carboxamide] |  | < 1000 |
| CN1CCCn2c(nc(C(=O)NCc3ccc(F)cc3)c(O)c2=O)C1(C)C [Compound 176, N-(4-fluorobenzyl)-3-hydroxy-9,10,10-trimethyl-4-oxo-4,6,7,8,9,10-hexahydropyrimido[1,2-a][1,4]diazepine-2-carboxamide] |  | < 1000 |
